Laboratory results as given in PubChem BioAssay (NCI).
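Protocol summary: plate cells (96-well), add compound at 5 concentrations, incubate 48 h, interpolate endpoints linearly. The concentration for full growth arrest is given as TGI.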

Legend:
Test in all cases: DTP human tumour cell line panel, 48 h
786-0 renal = system: 786-0 renal
A498 renal = system: A498 renal
A549 NSCLC = system: A549 NSCLC
ACHN renal = system: ACHN renal
BT-549 breast = system: BT-549 breast
CAKI-1 renal = system: CAKI-1 renal
CCRF-CEM leukemia = system: CCRF-CEM leukemia
COLO 205 colon = system: COLO 205 colon
DU-145 prostate = system: DU-145 prostate
EKVX NSCLC = system: EKVX NSCLC
HCC-2998 colon = system: HCC-2998 colon
HCT-116 colon = system: HCT-116 colon
HCT-15 colon = system: HCT-15 colon
HL-60(TB) leukemia = system: HL-60(TB) leukemia
HOP-62 NSCLC = system: HOP-62 NSCLC
HOP-92 NSCLC = system: HOP-92 NSCLC
HS 578T breast = system: HS 578T breast
HT29 colon = system: HT29 colon
IGROV1 ovarian = system: IGROV1 ovarian
K-562 leukemia = system: K-562 leukemia
KM12 colon = system: KM12 colon
LOX IMVI melanoma = system: LOX IMVI melanoma
M14 melanoma = system: M14 melanoma
MALME-3M melanoma = system: MALME-3M melanoma
MCF7 breast = system: MCF7 breast
MDA-MB-231 breast = system: MDA-MB-231 breast
MDA-MB-435 = system: MDA-MB-435
MDA-N = system: MDA-N
MOLT-4 leukemia = system: MOLT-4 leukemia
NCI-H23 lung = system: NCI-H23 lung
NCI-H460 lung = system: NCI-H460 lung
NCI-H522 lung = system: NCI-H522 lung
NCI/ADR-RES ovarian = system: NCI/ADR-RES ovarian
OVCAR-3 ovarian = system: OVCAR-3 ovarian
OVCAR-4 ovarian = system: OVCAR-4 ovarian
OVCAR-5 ovarian = system: OVCAR-5 ovarian
OVCAR-8 ovarian = system: OVCAR-8 ovarian
PC-3 prostate = system: PC-3 prostate
RPMI-8226 leukemia = system: RPMI-8226 leukemia
RXF 393 renal = system: RXF 393 renal
SF-268 CNS = system: SF-268 CNS
SF-295 CNS = system: SF-295 CNS
SF-539 CNS = system: SF-539 CNS
SK-MEL-2 melanoma = system: SK-MEL-2 melanoma
SK-MEL-28 melanoma = system: SK-MEL-28 melanoma
SK-MEL-5 melanoma = system: SK-MEL-5 melanoma
SK-OV-3 ovarian = system: SK-OV-3 ovarian
SN12C renal = system: SN12C renal
SNB-19 CNS = system: SNB-19 CNS
SNB-75 CNS = system: SNB-75 CNS
SW-620 colon = system: SW-620 colon
T-47D breast = system: T-47D breast
TK-10 renal = system: TK-10 renal
U251 CNS = system: U251 CNS
UACC-257 melanoma = system: UACC-257 melanoma
UACC-62 melanoma = system: UACC-62 melanoma
UO-31 renal = system: UO-31 renal
SR leukemia = system: SR leukemia

CN(CCNC(=O)c1nn(-c2ccccc2)c2c1Cc1ccccc1-2)CCNC(=O)c1nn(-c2ccccc2)c2c1Cc1ccccc1-2
TGI (786-0 renal): 3.08 µM
TGI (A498 renal): 3.36 µM
TGI (A549 NSCLC): 4.93 µM
TGI (ACHN renal): 3.44 µM
TGI (BT-549 breast): 18.7 µM
TGI (CAKI-1 renal): 7.28 µM
TGI (CCRF-CEM leukemia): 4.68 µM
TGI (COLO 205 colon): 3.32 µM
TGI (DU-145 prostate): 6.75 µM
TGI (EKVX NSCLC): 9.65 µM
TGI (HCC-2998 colon): 3.13 µM
TGI (HCT-116 colon): 3.13 µM
TGI (HCT-15 colon): 3.67 µM
TGI (HL-60(TB) leukemia): 2.91 µM
TGI (HOP-62 NSCLC): 3.6 µM
TGI (HOP-92 NSCLC): 3.01 µM
TGI (HS 578T breast): 3.77 µM
TGI (HT29 colon): 3.73 µM
TGI (IGROV1 ovarian): 3.31 µM
TGI (K-562 leukemia): 6.59 µM
TGI (KM12 colon): 3.69 µM
TGI (LOX IMVI melanoma): 3.32 µM
TGI (M14 melanoma): 3.27 µM
TGI (MALME-3M melanoma): 3.34 µM
TGI (MCF7 breast): 3.19 µM
TGI (MDA-MB-231 breast): 3.39 µM
TGI (MDA-MB-435): 3.17 µM
TGI (MDA-N): 3.16 µM
TGI (MOLT-4 leukemia): 11 µM
TGI (NCI-H23 lung): 3.7 µM
TGI (NCI-H460 lung): 3.15 µM
TGI (NCI-H522 lung): 3.15 µM
TGI (NCI/ADR-RES ovarian): 6.36 µM
TGI (OVCAR-3 ovarian): 3.52 µM
TGI (OVCAR-4 ovarian): 4.48 µM
TGI (OVCAR-5 ovarian): 6.8 µM
TGI (OVCAR-8 ovarian): 3.17 µM
TGI (PC-3 prostate): 4.81 µM
TGI (RPMI-8226 leukemia): 14.1 µM
TGI (RXF 393 renal): 3.07 µM
TGI (SF-268 CNS): 4.74 µM
TGI (SF-295 CNS): 3.34 µM
TGI (SF-539 CNS): 4.11 µM
TGI (SK-MEL-2 melanoma): 3.38 µM
TGI (SK-MEL-28 melanoma): 3.24 µM
TGI (SK-MEL-5 melanoma): 3.38 µM
TGI (SK-OV-3 ovarian): 4.31 µM
TGI (SN12C renal): 3.61 µM
TGI (SNB-19 CNS): 4.43 µM
TGI (SNB-75 CNS): 3.5 µM
TGI (SW-620 colon): 3.09 µM
TGI (T-47D breast): > 22.5 µM
TGI (TK-10 renal): 4.3 µM
TGI (U251 CNS): 3.09 µM
TGI (UACC-257 melanoma): 3.42 µM
TGI (UACC-62 melanoma): 3.1 µM
TGI (UO-31 renal): 3.22 µM

CCOC(=O)NC(Nc1ncccn1)(C(=O)OCC)C(F)(F)F (stereo not given)
TGI (A549 NSCLC): > 100 µM
TGI (ACHN renal): > 100 µM
TGI (BT-549 breast): > 100 µM
TGI (CAKI-1 renal): > 100 µM
TGI (CCRF-CEM leukemia): > 100 µM
TGI (COLO 205 colon): > 100 µM
TGI (DU-145 prostate): > 100 µM
TGI (EKVX NSCLC): > 100 µM
TGI (HCC-2998 colon): > 100 µM
TGI (HCT-116 colon): > 100 µM
TGI (HCT-15 colon): > 100 µM
TGI (HL-60(TB) leukemia): > 100 µM
TGI (HOP-92 NSCLC): > 100 µM
TGI (HS 578T breast): > 100 µM
TGI (HT29 colon): > 100 µM
TGI (IGROV1 ovarian): > 100 µM
TGI (K-562 leukemia): > 100 µM
TGI (KM12 colon): > 100 µM
TGI (LOX IMVI melanoma): > 100 µM
TGI (M14 melanoma): > 100 µM
TGI (MCF7 breast): > 100 µM
TGI (MDA-MB-231 breast): > 100 µM
TGI (MDA-MB-435): > 100 µM
TGI (MDA-N): > 100 µM
TGI (MOLT-4 leukemia): > 100 µM
TGI (NCI-H23 lung): > 100 µM
TGI (NCI-H460 lung): > 100 µM
TGI (NCI-H522 lung): > 100 µM
TGI (NCI/ADR-RES ovarian): > 100 µM
TGI (OVCAR-3 ovarian): > 100 µM
TGI (OVCAR-4 ovarian): > 100 µM
TGI (OVCAR-5 ovarian): > 100 µM
TGI (OVCAR-8 ovarian): > 100 µM
TGI (PC-3 prostate): > 100 µM
TGI (RPMI-8226 leukemia): > 100 µM
TGI (RXF 393 renal): > 100 µM
TGI (SF-268 CNS): > 100 µM
TGI (SF-295 CNS): > 100 µM
TGI (SF-539 CNS): > 100 µM
TGI (SK-MEL-2 melanoma): > 100 µM
TGI (SK-MEL-28 melanoma): > 100 µM
TGI (SK-MEL-5 melanoma): > 100 µM
TGI (SN12C renal): > 100 µM
TGI (SNB-19 CNS): > 100 µM
TGI (SNB-75 CNS): > 100 µM
TGI (SR leukemia): > 100 µM
TGI (SW-620 colon): > 100 µM
TGI (T-47D breast): > 100 µM
TGI (TK-10 renal): > 100 µM
TGI (U251 CNS): > 100 µM
TGI (UACC-257 melanoma): > 100 µM
TGI (UACC-62 melanoma): > 100 µM
TGI (UO-31 renal): > 100 µM
